Reference: PubChem BioAssay AID1963865 (Molecular Pharmacology Branch, DTP, NCI, 2024)
Where “and” joins values, the source holds several entries; their conditions need not be identical. Equal values may be shown once.

Tested on: KRAS PDC multicell spheroid viability
Test: Anticancer human tumor 825966-067-R-J1-PDC patient-derived colon carcinoma cell line growth inhibition [KRAS2]
Details: for viability, T/C: stronger effect = lower value
Procedure, shortened: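 Combination screen of spheroid viability in tumor-cell co-cultures with endothelial (HUVEC) and mesenchymal stem cell stroma. Each agent was tested in half-log dilutions, topping at clinical Cmax or at 10 microM without a known Cmax.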

[1] = curve of first compound, second compound 0.1 µM
[2] = curve of first compound, second compound 0.316 µM
[3] = curve of first compound, second compound 1 µM
[4] = curve of first compound, second compound 3.16 µM
[5] = curve of first compound, second compound 10 µM
[6] = second compound 0.1 µM, first compound 0.0316 µM
[7] = second compound 0.1 µM, first compound 0.1 µM
[8] = second compound 0.1 µM, first compound 0.316 µM
[9] = second compound 0.1 µM, first compound 1 µM
[10] = second compound 0.1 µM, first compound 3.16 µM
[11] = second compound 0.1 µM, first compound 10 µM
[12] = second compound 0.316 µM, first compound 0.0316 µM
[13] = second compound 0.316 µM, first compound 0.1 µM
[14] = second compound 0.316 µM, first compound 0.316 µM
[15] = second compound 0.316 µM, first compound 1 µM
[16] = second compound 0.316 µM, first compound 3.16 µM
[17] = second compound 0.316 µM, first compound 10 µM
[18] = second compound 1 µM, first compound 0.0316 µM
[19] = second compound 1 µM, first compound 0.1 µM
[20] = second compound 1 µM, first compound 0.316 µM
[21] = second compound 1 µM, first compound 1 µM
[22] = second compound 1 µM, first compound 3.16 µM
[23] = second compound 1 µM, first compound 10 µM
[24] = second compound 3.16 µM, first compound 0.0316 µM
[25] = second compound 3.16 µM, first compound 0.1 µM
[26] = second compound 3.16 µM, first compound 0.316 µM
[27] = second compound 3.16 µM, first compound 1 µM
[28] = second compound 3.16 µM, first compound 3.16 µM
[29] = second compound 3.16 µM, first compound 10 µM
[30] = second compound 10 µM, first compound 0.0316 µM
[31] = second compound 10 µM, first compound 0.1 µM
[32] = second compound 10 µM, first compound 0.316 µM
[33] = second compound 10 µM, first compound 1 µM
[34] = second compound 10 µM, first compound 3.16 µM
[35] = second compound 10 µM, first compound 10 µM
[36] = curve of first compound, second compound 0.0316 µM
[37] = second compound 0.0316 µM, first compound 0.0316 µM
[38] = second compound 0.0316 µM, first compound 0.1 µM
[39] = second compound 0.0316 µM, first compound 0.316 µM
[40] = second compound 0.0316 µM, first compound 1 µM
[41] = compound alone, run of 08/19/2021
[42] = compound alone, run of 08/26/2021
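Note: spheroids exposed to compounds for 7 days.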
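Throughout, for viability, T/C: 100% = DMSO vehicle control viability.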

Compound	IC50 [1] [µM]	IC50 [2] [µM]	IC50 [3] [µM]	IC50 [4] [µM]	viability, T/C [6] [%]	viability, T/C [7] [%]	viability, T/C [8] [%]	viability, T/C [9] [%]	viability, T/C [12] [%]	viability, T/C [13] [%]	viability, T/C [14] [%]	viability, T/C [15] [%]	viability, T/C [18] [%]	viability, T/C [19] [%]	viability, T/C [20] [%]	viability, T/C [21] [%]	viability, T/C [24] [%]	viability, T/C [25] [%]	viability, T/C [26] [%]	viability, T/C [27] [%]	also measured
COC(=O)c1ccc2c(C(=Nc3ccc(N(C)C(=O)CN4CCN(C)CC4)cc3)c3ccccc3)c(O)[nH]c2c1 + C=CC(=O)N1CCN(c2nc(=O)n(-c3c(C)ccnc3C(C)C)c3nc(-c4c(O)cccc4F)c(F)cc23)C(C)C1	0.633	0.738	0.513	0.472	83.3	88.2	72.2	35.4	76.2	82.6	77.7	40	77.3	75.7	85.6	9.2	83	76.4	71.6	9.78	IC50 [5]: 0.444 µM; viability, T/C [10]: 0.37%; viability, T/C [11]: 0.76%; viability, T/C [16]: 0.17%; viability, T/C [17]: 0.12%; viability, T/C [22]: 0.13%; viability, T/C [23]: 0.13%; viability, T/C [28]: 1.23%; viability, T/C [29]: 0.13%; viability, T/C [30]: 71.2%; viability, T/C [31]: 67%; viability, T/C [32]: 68.7%; viability, T/C [33]: 5.2%; viability, T/C [34]: 0.99%; viability, T/C [35]: 0.17%
CCN1CCN(Cc2ccc(Nc3ncc(F)c(-c4cc(F)c5nc(C)n(C(C)C)c5c4)n3)nc2)CC1 + C=CC(=O)N1CCN(c2nc(OCC3CCCN3C)nc3c2CCN(c2cccc4cccc(C)c24)C3)CC1CC#N	> 1	> 1	> 1	0.397	108	165	198	123	119	86.5	160	115	102	166	167	112	133	125	61.6	2.39	IC50 [36]: > 1 µM; viability, T/C (second compound 0.0316 µM, first compound 0.00316 µM): 93.5%; viability, T/C (second compound 0.0316 µM, first compound 0.01 µM): 112%; viability, T/C [37]: 91%; viability, T/C [38]: 113%; viability, T/C [39]: 158%; viability, T/C [40]: 153%; viability, T/C (second compound 0.1 µM, first compound 0.00316 µM): 97.1%; viability, T/C (second compound 0.1 µM, first compound 0.01 µM): 114%; viability, T/C (second compound 0.316 µM, first compound 0.00316 µM): 103%; viability, T/C (second compound 0.316 µM, first compound 0.01 µM): 105%; viability, T/C (second compound 1 µM, first compound 0.00316 µM): 95.7%; viability, T/C (second compound 1 µM, first compound 0.01 µM): 110%; viability, T/C (second compound 3.16 µM, first compound 0.00316 µM): 83.7%; viability, T/C (second compound 3.16 µM, first compound 0.01 µM): 114%
CC1OCC2(CCN(c3cnc(Sc4ccnc(N)c4Cl)c(N)n3)CC2)C1N (centres undefined)	–	–	–	–	–	–	–	–	–	–	–	–	–	–	–	–	–	–	–	–	viability, T/C (compound 0.0316 µM): 82% and 80.9% and 85.5%; viability, T/C (compound 0.1 µM): 92.7% [middle of 19 runs]; IC50 [41]: > 10 µM and 9.29 µM; IC50 [42]: 7.63 µM [middle of 5 runs]; IC50 (compound alone, run of 09/02/2021): > 10 µM and 8.08 µM; IC50 (curve of compound): 9.31 µM and 8.73 µM and > 10 µM
Cn1nccc1Nc1nccc(-c2cc3c(s2)C(C)(C)N(CCN2CCOCC2)C3=O)n1 + COc1cc2nc(C)nc(NC(C)c3cc(N)cc(C(F)(F)F)c3)c2cc1OC1CCOC1	> 10	> 10	> 10	10	105	120	146	102	110	112	126	81	114	117	121	79.3	103	130	85.7	49.7	IC50 [5]: 0.0952 µM; viability, T/C [10]: 83.1%; viability, T/C [11]: 72.2%; viability, T/C [16]: 83.8%; viability, T/C [17]: 67.7%; viability, T/C [22]: 80.9%; viability, T/C [23]: 65.7%; viability, T/C [28]: 62.5%; viability, T/C [29]: 45.6%; viability, T/C [30]: 70.3%; viability, T/C [31]: 49.1%; viability, T/C [32]: 2.05%; viability, T/C [33]: 0.83%; viability, T/C [34]: 0.32%; viability, T/C [35]: 0.87%
O=C(c1cc(Cc2n[nH]c(=O)c3ccccc23)ccc1F)N1CCN(C(=O)C2CC2)CC1 + C=CC(=O)N1CCN(c2nc(OCC3CCCN3C)nc3c2CCN(c2cccc4cccc(C)c24)C3)CC1CC#N	> 10	> 10	> 10	> 10	98.7	100	91.8	92.3	94.7	91.2	104	94.1	87.1	94.8	91	93.2	96.3	108	111	110	IC50 [36]: > 10 µM; viability, T/C [37]: 100%; viability, T/C [38]: 119%; viability, T/C [39]: 96.8%; viability, T/C [40]: 77.1%; viability, T/C (second compound 0.0316 µM, first compound 3.16 µM): 98.4%; viability, T/C (second compound 0.0316 µM, first compound 10 µM): 80.2%; viability, T/C [10]: 109%; viability, T/C [11]: 95.4%; viability, T/C [16]: 96.2%; viability, T/C [17]: 97.9%; viability, T/C [22]: 99.6%; viability, T/C [23]: 125%; viability, T/C [28]: 123%; viability, T/C [29]: 109%
CNCc1ccccc1-c1csc(C(C)Nc2nc(C)nc3cc(OC)c(OC)cc23)c1 (centres undefined)	–	–	–	–	–	–	–	–	–	–	–	–	–	–	–	–	–	–	–	–	viability, T/C (compound 10 µM): 0.22% [middle of 14 runs]; IC50 [41]: 2.3 µM [middle of 6 runs]; IC50 [42]: 3.18 µM [middle of 5 runs]
